These results are taken from ChEMBL document CHEMBL5537134, “Targeting the pyruvate dehydrogenase complex/pyruvate dehydrogenase kinase (PDC/PDK) axis to discover potent PDK inhibitors through structure-based virtual screening and pharmacological evaluation” (Eur J Med Chem, 2024).

Molecules are shown by their SMILES. Calls of active or inactive are those of the source. No cut-off for these calls is given here.

Data set [1] relates to A549. As to the kind of experiment: Antiproliferative activity against human A549 cells assessed as reduction in cell viability at 40 uM incubated for 72 hrs by MTT assay. Format: functional, cell-based. In general terms: Formazan colour is commonly taken as a measure of viable cells.
Data set [2] concerns the target T1, [Pyruvate dehydrogenase (acetyl-transferring)] kinase isozyme 1, mitochondrial (Homo sapiens, UniProt Q15118). As to the kind of experiment: Inhibition of recombinant full-length human PDK1 (1 to 436 residues) expressed in baculovirus infected Sf9 insect cells using PDHA1 as substrate at 10 uM incubated for 1 hrs in presence of ATP by Kinase-Glo luminescence assay.

Data set [3] deals with A549. As to the kind of experiment: Induction of cell cycle arrest in human A549 cells assessed as accumulation of cells at G2 phase at 7.5 uM incubated for 24 hrs by Propidium Iodide staining based flow cytometry analysis (reference value: 13.19 %). Format: functional. (In general: A flow cytometer gives signals particle by particle.)
Data set [4] has as its system A549. As to the kind of experiment: Induction of cell cycle arrest in human A549 cells assessed as accumulation of cells at S phase at 7.5 uM incubated for 24 hrs by Propidium Iodide staining based flow cytometry analysis (reference value: 36.92 %). Format: functional.
For data set [5], the system named is A549. As to the kind of experiment: Induction of apoptosis in human A549 cells at 20 uM incubated for 12 hrs by Annexin V-FITC/Propidium Iodide staining based flow cytometry analysis relative to control. Format: functional.
Data set [6] concerns Cell membrane. As to the kind of experiment: Induction of mitochondrial membrane depolarization in human A549 cells assessed as increase in green fluorescence intensity at 5 to 20 uM incubated for 4 hrs by JC-1 staining based laser scanning confocal microscope analysis. In kind it is cell membranes. To be noted: dose 5-20 µM.
Data set [7] is described as follows: Toxicity in Balb/c mouse assessed as change in body weight at 50 mg/kg, ip administered for 7 days. In kind it is organism-based. To be noted: in vivo, 168 h, time 7 day.
Data set [8] deals with A549. As to the kind of experiment: Antiproliferative activity against human A549 cells assessed as reduction in cell viability incubated for 72 hrs under hypoxic condition by MTT assay. The settings on record: A549, 72 h.
A short description of data set [9]: Toxicity in Balb/c mouse assessed as pathological abnormality in liver at 50 mg/kg, ip administered for 7 days by hematoxylin and eosin staining based analysis. In kind it is organism-based. The settings on record: in vivo, 168 h, time 7 day.
In data set [10] the test system is A549. As to the kind of experiment: Induction of cell cycle arrest in human A549 cells assessed as accumulation of cells at G2 phase at 5 uM incubated for 24 hrs by Propidium Iodide staining based flow cytometry analysis (reference value: 13.19 %). Format: functional.
For data set [11], the system named is A549. As to the kind of experiment: Induction of apoptosis in human A549 cells at 20 uM incubated for 24 hrs by Annexin V-FITC/Propidium Iodide staining based flow cytometry analysis relative to control. In kind it is functional.
Data set [12] deals with Cell membrane. As to the kind of experiment: Induction of mitochondrial membrane depolarization in human A549 cells assessed as increase in oxygen consumption rate by Seahorse XFe96 extracellular flux analyzer method. In kind it is cell membranes. To be noted: dose 10-40 µM.
Data set [13] deals with A549. As to the kind of experiment: Induction of apoptosis in human A549 cells assessed as apoptotic cells at 5 uM incubated for 48 hrs by Annexin V-FITC/Propidium Iodide staining based flow cytometry analysis relative to control. Format: functional.
Data set [14] concerns A549. As to the kind of experiment: Induction of cell cycle arrest in human A549 cells assessed as accumulation of cells at S phase at 10 uM incubated for 24 hrs by Propidium Iodide staining based flow cytometry analysis (reference value: 36.92 %). In kind it is functional.
In data set [15] the test system is A549. As to the kind of experiment: cells. The settings on record: Homo sapiens.
Description: Anticancer activity against human A549 cells assessed as inhibition of cell growth incubated for 24 to 72 hrs by IncuCyte Zoom live cell imaging analysis
Data set [16] deals with A549. As to the kind of experiment: Induction of cell cycle arrest in human A549 cells assessed as accumulation of cells at G1 phase at 5 uM incubated for 24 hrs by Propidium Iodide staining based flow cytometry analysis (reference value: 49.88 %). In kind it is functional.
In data set [17] the test system is A549. As to the kind of experiment: Induction of cell cycle arrest in human A549 cells assessed as accumulation of cells at G2 phase at 10 uM incubated for 24 hrs by Propidium Iodide staining based flow cytometry analysis (reference value: 13.19 %). In kind it is functional.
Data set [18] concerns A549. As to the kind of experiment: Induction of cell cycle arrest in human A549 cells assessed as accumulation of cells at G1 phase at 10 uM incubated for 24 hrs by Propidium Iodide staining based flow cytometry analysis (reference value: 49.88 %). Format: functional.
Data set [19] concerns A549. As to the kind of experiment: Induction of apoptosis in human A549 cells at 20 uM by Annexin V-FITC/Propidium Iodide staining based flow cytometry analysis. Format: functional, cell-based. To be noted: time 12-48 hrs, TDE = time-dependent effect.
Data set [20] addresses [Pyruvate dehydrogenase (acetyl-transferring)] kinase isozyme 2, mitochondrial (Homo sapiens, UniProt Q15119). As to the kind of experiment: Inhibition of recombinant full length human PDK2 (1 to 407 residues) expressed in baculovirus infected Sf9 cells using PDHA1 as substrate incubated for 1 hrs in presence of ATP by ADP-Glo luminescence assay.
Data set [21] deals with A549. As to the kind of experiment: Induction of cell cycle arrest in human A549 cells assessed as accumulation of cells at S phase at 5 uM incubated for 24 hrs by Propidium Iodide staining based flow cytometry analysis (reference value: 36.92 %). In kind it is functional.
A short description of data set [22]: Toxicity in Balb/c mouse assessed as death at 50 mg/kg, ip administered for 7 days. Format: organism-based. The settings on record: in vivo, 168 h, time 7 day.
In a further data set the test system is BEAS-2B. As to the kind of experiment: Cytotoxicity against human BEAS-2B cells assessed as reduction in cell viability upto 50 uM incubated for 72 hrs by MTT assay. In kind it is toxicity, cell-based.
In data set [23] the test system is A549. As to the kind of experiment: Induction of apoptosis in human A549 cells assessed as apoptotic cells at 10 uM incubated for 48 hrs by Annexin V-FITC/Propidium Iodide staining based flow cytometry analysis relative to control. Format: functional.
Data set [24] concerns A549. As to the kind of experiment: Induction of cell cycle arrest in human A549 cells assessed as accumulation of cells at G1 phase at 7.5 uM incubated for 24 hrs by Propidium Iodide staining based flow cytometry analysis (reference value: 49.88 %). In kind it is functional.
In data set [25] the test system is Cell membrane. As to the kind of experiment: Induction of mitochondrial membrane depolarization in human A549 cells assessed as increase in JC-1 monomer incubated for 4 hrs by JC-1 staining based flow cytometry analysis. In kind it is cell membranes. The settings on record: dose 5-20 µM.
A short description of data set [26]: Toxicity in Balb/c mouse assessed as pathological abnormality in spleen at 50 mg/kg, ip administered for 7 days by hematoxylin and eosin staining based analysis. Format: organism-based. The settings on record: in vivo, 168 h, time 7 day.
The nature of data set [27]: Toxicity in Balb/c mouse assessed as pathological abnormality in lung at 50 mg/kg, ip administered for 7 days by hematoxylin and eosin staining based analysis. In kind it is organism-based. The settings on record: in vivo, 168 h, time 7 day.
Data set [28] deals with Cell membrane. As to the kind of experiment: Induction of mitochondrial membrane depolarization in human A549 cells assessed as disappearance of red fluorescence at 5 to 20 uM incubated for 4 hrs by TMRM staining based laser scanning confocal microscope analysis. Format: cell membranes. To be noted: dose 5-20 µM.
For data set [29], the system named is A549. As to the kind of experiment: Induction of apoptosis in human A549 cells assessed as apoptotic cells at 20 uM incubated for 48 hrs by Annexin V-FITC/Propidium Iodide staining based flow cytometry analysis relative to control. In kind it is functional.
Data set [30] has as its system Cell membrane. As to the kind of experiment: Induction of mitochondrial membrane depolarization in human A549 cells assessed as decrease in lactate formation incubated for 8 hrs by NovaBioprofile Flex analyzer method. In kind it is cell membranes. The settings on record: dose 10-40 µM.
Data set [31] can be described thus: Toxicity in Balb/c mouse assessed as pathological abnormality in kidney at 50 mg/kg, ip administered for 7 days by hematoxylin and eosin staining based analysis. Format: organism-based. To be noted: in vivo, 168 h, time 7 day.
In data set [32] the test system is Cell membrane. As to the kind of experiment: Induction of mitochondrial membrane depolarization in human A549 cells assessed as decrease in extracellular acidification by Seahorse XFe96 extracellular flux analyzer method. To be noted: dose 10-40 µM. In kind it is cell membranes.
For data set [33], the system named is A549. As to the kind of experiment: Anticancer activity against human A549 cells assessed as inhibition of cell growth at 20 uM by IncuCyte Zoom live cell imaging analysis. Format: functional, cell-based. To be noted: time 24-72 hrs, TDE = time-dependent effect.
Data set [34] can be described thus: Toxicity in Balb/c mouse assessed as clinical signs at 50 mg/kg, ip administered for 7 days. Format: organism-based. To be noted: in vivo, 168 h, time 7 day.
Data set [35] has as its system A549. As to the kind of experiment: Induction of apoptosis in human A549 cells incubated for 48 hrs by Annexin V-FITC/Propidium Iodide staining based flow cytometry analysis. The settings on record: dose 5-20 µM. Format: functional, cell-based.
Data set [36] can be described thus: Toxicity in Balb/c mouse assessed as pathological abnormality in heart at 50 mg/kg, ip administered for 7 days by hematoxylin and eosin staining based analysis. Format: organism-based. The settings on record: in vivo, 168 h, time 7 day.
Data set [37] has as its system A549. As to the kind of experiment: Antiproliferative activity against human A549 cells assessed as reduction in cell viability incubated for 72 hrs by CCK8 assay. In kind it is functional, cell-based. The settings on record: A549, 72 h.
For data set [38], the target named is T1, [Pyruvate dehydrogenase (acetyl-transferring)] kinase isozyme 1, mitochondrial. As to the kind of experiment: Inhibition of 6His-tagged full length PDK1 (unknown origin) expressed in Escherichia coli in presence of ATP by ELISA based kinase activity assay. Background: ELISA stands for enzyme-linked immunosorbent assay.
Data set [39] has the same target. As to the kind of experiment: Inhibition of recombinant full-length human PDK1 (1 to 436 residues) expressed in baculovirus infected Sf9 insect cells using PDHA1 as substrate incubated for 1 hrs in presence of ATP by Kinase-Glo luminescence assay.
The test system of data set [40] is A549. As to the kind of experiment: Anticancer activity against human A549 cells assessed as reduction in cell growth at 20 uM by IncuCyte Zoom live cell imaging analysis. Format: functional, cell-based.
Data set [41] deals with T1, [Pyruvate dehydrogenase (acetyl-transferring)] kinase isozyme 1, mitochondrial. As to the kind of experiment: Binding affinity to PDK1 (unknown origin) assessed as dissociation constant in presence of 5-((4-chlorophenyl)sulfonamido)-N-(2-hydroxyethyl)-2,4-dimethylbenzenesulfonamide.
Data set [42] shares this target. As to the kind of experiment: Binding affinity to PDK1 (unknown origin) assessed as dissociation constant.

Usually IC50 stands for the point on the concentration scale where inhibition reaches its midpoint. A word on the EC50: it is the concentration giving half of the maximal effect. What is called Kd is the equilibrium constant for the complex coming apart.

T1 sequence (Q15118 whole entry, the tested form may be a part): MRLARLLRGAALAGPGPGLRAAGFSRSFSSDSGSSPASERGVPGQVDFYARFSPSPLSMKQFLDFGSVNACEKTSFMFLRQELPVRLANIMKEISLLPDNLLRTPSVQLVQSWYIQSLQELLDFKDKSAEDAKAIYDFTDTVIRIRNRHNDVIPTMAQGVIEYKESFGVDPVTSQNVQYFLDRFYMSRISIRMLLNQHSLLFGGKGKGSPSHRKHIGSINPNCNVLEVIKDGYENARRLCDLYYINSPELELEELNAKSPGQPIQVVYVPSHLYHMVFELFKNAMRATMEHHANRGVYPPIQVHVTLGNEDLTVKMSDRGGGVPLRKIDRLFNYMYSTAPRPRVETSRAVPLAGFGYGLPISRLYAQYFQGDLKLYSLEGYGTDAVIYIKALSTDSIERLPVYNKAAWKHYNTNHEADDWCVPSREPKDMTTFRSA

For `CC(C)[C@H](NC(=O)N1CCN(C(c2ccc(F)cc2)c2ccc(F)cc2)CC1)C(=O)O`, the result in the data set with A549 [1] was Active.

In the case of `O=C(c1cccc(S(=O)(=O)Nc2cc(Cl)ccc2Cl)c1)N1CCN(CCO)CC1`, the inhibition entry in data set [2] was “Active”.

In the case of `Cc1cc(C)c(S(=O)(=O)NCCO)cc1NS(=O)(=O)c1ccc(Cl)cc1`, the Activity in the data set on A549 [3] was 7.98%; with A549 [4], 42.37%; in the data set with A549 [5], 10.8%; in data set [7], “Non-Toxic”; in data set [9] it was “Non-Toxic”; in the data set on A549 [10], 12.31%. Moreover, the Activity was 60% with A549 [11]; “Dose-Dependent Effect” with Cell membrane [12]; 8.8% in the data set on A549 [13]; 50.66% with A549 [14]; 55.25% with A549 [16]; 1.58% in the data set with A549 [17]. In addition, the Activity was 47.77% in the data set on A549 [18]; “Tde” with A549 [19]; 32.44% with A549 [21]; “Non-Toxic” in data set [22]; “Non-Toxic” in the data set on BEAS-2B; 23.8% in the data set with A549 [23]. Besides, the Activity in the data set with A549 [24] is 49.65%; in the data set with Cell membrane [25] it was “Dose-Dependent Effect”; in data set [26] it was “Non-Toxic”; in [27], “Non-Toxic”; in the data set on A549 [29], 80.5%; with Cell membrane [30] it was “Dose-Dependent Effect”. Also, the Activity entry in [31] is “Non-Toxic”; with Cell membrane [32], “Dose-Dependent Effect”; with A549 [33], “Tde”; in [34], “Non-Toxic”; in the data set with A549 [35] it was “Dose-Dependent Effect”; in data set [36], “Non-Toxic”. Further, the result in the data set with Cell membrane [6], with A549 [1] and in the data set on Cell membrane [28] was Active. In addition, the IC50 in the data set on A549 [8] came to 5670 nM; in data set [20] it was 136 nM. The EC50 in the data set with A549 [15] came out at 10700 nM.

`S=C(SSC(=S)N1CCOCC1)N1CCOCC1`: in the data set on A549 [37], the IC50 was less than 500 nM. Also, in data set [38], the EC50 was 49 nM.

`CN(C)C(=O)c1ccc(S(=O)(=O)c2ccc(NC(=O)[C@@](C)(O)C(F)(F)F)c(Cl)c2)cc1`: the figures for the IC50 in data set [39] and in data set [20] were 32.3 nM and 74.5 nM, respectively. For the same compound, the Activity was 18.03% in the data set with A549 [14], 13.47% with A549 [17] and 68.5% in the data set with A549 [18]. The outcome in the data set with A549 [40] was inactive. The Kd was 8900 nM in data set [41] and 148 nM in data set [42].
